Laboratory results from PubChem BioAssay (NCI).
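Protocol summary: plate cells (96-well), add compound at 5 concentrations, incubate 48 h, interpolate endpoints linearly. GI50: concentration for 50% inhibition of growth. TGI marks complete inhibition of growth.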

Key:
Assay in all cases: NCI anticancer screen, dose series, 48 h
UACC-257 melanoma = tested on: UACC-257 melanoma
OVCAR-5 ovarian = tested on: OVCAR-5 ovarian
LOX IMVI melanoma = tested on: LOX IMVI melanoma
SNB-19 CNS = tested on: SNB-19 CNS
SF-268 CNS = tested on: SF-268 CNS
NCI-H522 lung = tested on: NCI-H522 lung
OVCAR-8 ovarian = tested on: OVCAR-8 ovarian
HOP-62 NSCLC = tested on: HOP-62 NSCLC
EKVX NSCLC = tested on: EKVX NSCLC
MCF7 breast = tested on: MCF7 breast
A498 renal = tested on: A498 renal
CAKI-1 renal = tested on: CAKI-1 renal
TK-10 renal = tested on: TK-10 renal
M14 melanoma = tested on: M14 melanoma

Row | Compound | TGI (UACC-257 melanoma) | TGI (OVCAR-5 ovarian) | TGI (LOX IMVI melanoma) | TGI (SNB-19 CNS) | TGI (SF-268 CNS) | TGI (NCI-H522 lung) | TGI (OVCAR-8 ovarian) | TGI (HOP-62 NSCLC) | TGI (EKVX NSCLC) | TGI (MCF7 breast) | TGI (A498 renal) | TGI (CAKI-1 renal) | TGI (TK-10 renal) | TGI (M14 melanoma) | GI50 (LOX IMVI melanoma) | GI50 (OVCAR-8 ovarian) | GI50 (EKVX NSCLC) | GI50 (M14 melanoma) | GI50 (CAKI-1 renal) | GI50 (A498 renal)
1 | O=C1OC2CC=CC1C2 (stereo not drawn) | > 100 µM | > 100 µM | > 100 µM | > 100 µM | > 100 µM | > 100 µM | > 100 µM | > 100 µM | > 100 µM | > 100 µM | > 100 µM | – | – | – | – | – | – | – | – | –
2 | COc1ccc(NC(=S)N/N=C(\C)c2nc3ncccc3[nH]2)cc1 | > 100 µM | > 100 µM | 28.7 µM | > 100 µM | > 100 µM | 37.5 µM | 63.3 µM | 59.3 µM | > 100 µM | 21.6 µM | 98.2 µM | > 100 µM | 21.1 µM | – | – | – | – | – | – | –
3 | O=C(Oc1ccc(Cl)cc1[N+](=O)[O-])c1ccccc1 | > 100 µM | > 100 µM | > 100 µM | > 100 µM | > 100 µM | – | > 100 µM | > 100 µM | > 100 µM | – | > 100 µM | – | > 100 µM | > 100 µM | – | – | – | – | – | –
4 | SC1CCCN(Cc2ccccc2)C1 (stereo not drawn) | > 100 µM | > 100 µM | 34.7 µM | > 100 µM | > 100 µM | > 100 µM | > 100 µM | > 100 µM | > 100 µM | 39.4 µM | > 100 µM | > 100 µM | > 100 µM | 36.9 µM | – | – | – | – | – | –
5 | CCCC(=O)O.CCCC(=O)O.CCCC(=O)O.CCCC(=O)O.[Rh].[Rh] | – | – | 0.225 µM | – | – | – | 0.428 µM | – | 0.943 µM | – | 0.325 µM | 0.106 µM | – | 0.195 µM | 104 nM | 43.5 nM | 168 nM | 56.9 nM | 35 nM | 151 nM
6 | COc1cc(/C=C/C(=O)CC(=O)/C=C/c2ccc(O)c(OC)c2)ccc1O | 23.9 µM | […] | 15.5 µM | 15.7 µM | 36.1 µM | 16.7 µM | 28.4 µM | 19.1 µM | […] | 34.3 µM | 33.1 µM | 25.1 µM | 30.6 µM | 16 µM | – | – | – | – | – | –
7 | O=C(COc1ccc(Cl)c(Cl)c1)N(Cc1ccccc1)Cc1ccc[n+](Cc2ccc(Cl)cc2S(=O)(=O)F)c1 | > 100 µM | > 100 µM | – | > 100 µM | > 100 µM | > 100 µM | > 100 µM | > 100 µM | – | > 100 µM | > 100 µM | > 100 µM | > 100 µM | > 100 µM | – | – | – | – | – | –
8 | COc1ccc(OC)c(CC(C)N)c1 (stereo not drawn) | > 100 µM | – | > 100 µM | > 100 µM | > 100 µM | > 100 µM | > 100 µM | > 100 µM | > 100 µM | – | > 100 µM | > 100 µM | > 100 µM | > 100 µM | – | – | – | – | – | –
9 | CC(C)(C)OC(=O)NC1CCC(C(C)(C)C)CC1 (stereo not drawn) | > 61.8 µM | > 100 µM | > 100 µM | > 100 µM | > 100 µM | > 100 µM | > 100 µM | > 100 µM | > 100 µM | > 100 µM | > 100 µM | – | – | – | – | – | – | – | – | –
10 | COc1cc(S(=O)(=O)Nc2nc(-c3ccc(N4C(=O)/C(=C/c5ccccc5[N+](=O)[O-])N=C4c4ccccc4)cc3)cs2)ccc1Cl | > 100 µM | > 100 µM | > 100 µM | > 100 µM | > 100 µM | > 100 µM | > 100 µM | > 100 µM | – | > 100 µM | > 100 µM | > 100 µM | > 100 µM | > 100 µM | – | – | – | – | – | –
11 | Cl/C(=C\C=Nc1ccc(I)cc1)c1ccc2ccccc2c1 | 33.8 µM | > 64.6 µM | 30.9 µM | 39.7 µM | 65.4 µM | > 100 µM | 41.3 µM | 40.7 µM | > 100 µM | > 87.5 µM | > 90 µM | 29 µM | 49.6 µM | 31.5 µM | – | – | – | – | – | –
12 | C=CCNS(=O)(=O)c1ncnc2nc[nH]c12 | > 100 µM | > 100 µM | > 100 µM | > 100 µM | – | > 100 µM | > 100 µM | > 100 µM | > 100 µM | > 100 µM | > 100 µM | > 100 µM | > 100 µM | > 100 µM | – | – | – | – | – | –
13 | C=C1C(=O)OC2CC1CCC1(C)OC1CCC(C)=CCCC2(C)O (stereo not drawn) | 13.9 µM | 19.1 µM | 8.71 µM | 39.9 µM | 14.2 µM | 3.69 µM | 7.78 µM | 19.4 µM | 13.9 µM | 9.64 µM | 3.52 µM | 7.7 µM | – | – | – | – | – | – | – | –
14 | c1ccc(C[N+]23CN4CN(CN(C4)C2)C3)cc1 | > 100 µM | > 100 µM | 48.2 µM | 71.2 µM | 85.8 µM | > 100 µM | 81.8 µM | > 100 µM | > 100 µM | 94.3 µM | > 100 µM | > 100 µM | > 100 µM | 39.8 µM | – | – | – | – | – | –
15 | O=C1OCc2cc3cc4c(cc3c(-c3ccc5c(c3)OCO5)c21)OCO4 (tested in a mixture with another compound) | > 100 µM | 96.8 µM | > 100 µM | > 100 µM | – | – | > 100 µM | 34.9 µM | – | > 100 µM | > 100 µM | 86.7 µM | 50.8 µM | 32 µM | – | – | – | – | – | –
16 | O=C1CCCC2C3CC(CN12)C1CCCCN1C3 (stereo not drawn) | > 100 µM | > 100 µM | > 100 µM | > 100 µM | > 100 µM | > 100 µM | > 100 µM | > 100 µM | > 100 µM | > 100 µM | > 100 µM | > 100 µM | > 100 µM | > 100 µM | – | – | – | – | – | –
17 | CC(C)(C)c1ccc(/C=N/NC(=O)CSCC(=O)N/N=C/c2ccc(C(C)(C)C)cc2)cc1 | 15.2 µM | 12.5 µM | – | 17.2 µM | 10.9 µM | 21.9 µM | 6.49 µM | 5.84 µM | 19.8 µM | 6.05 µM | 8.67 µM | – | 16.6 µM | 3.89 µM | – | – | – | – | – | –
18 | O=C(/C=C/c1ccccc1)N1CCCCC1 | > 100 µM | > 100 µM | > 100 µM | > 100 µM | > 100 µM | > 100 µM | > 100 µM | > 100 µM | > 100 µM | > 100 µM | > 100 µM | > 100 µM | > 100 µM | > 100 µM | – | – | – | – | – | –
19 | COc1c(OC/C=C(\C)CCC=C(C)C)ccc2ccc(=O)oc12 | > 100 µM | > 100 µM | > 100 µM | > 100 µM | > 100 µM | > 100 µM | > 100 µM | > 100 µM | > 100 µM | > 100 µM | > 100 µM | > 100 µM | > 100 µM | > 100 µM | – | – | – | – | – | –
20 | CC(=O)NNC(=O)C1CCCCN1 (stereo not drawn) | > 100 µM | > 100 µM | > 100 µM | > 100 µM | > 100 µM | > 100 µM | > 100 µM | > 100 µM | > 100 µM | > 100 µM | > 100 µM | > 100 µM | > 100 µM | > 100 µM | – | – | – | – | – | –
21 | CC[C@]12C=CCN3CC[C@@]4(c5cc(Br)c(OC)cc5N(C)[C@H]4[C@@](O)(C(=O)N[C@@H](Cc4ccc(O)cc4)C(=O)OC)[C@@H]1O)[C@@H]32 | 33.9 µM | > 100 µM | 34.8 µM | > 100 µM | 52.4 µM | 54.4 µM | > 100 µM | > 100 µM | > 100 µM | > 100 µM | 40.8 µM | 77.9 µM | 79.5 µM | 95.1 µM | – | – | – | – | – | –
22 | Br/C(=N\Nc1nn[nH]n1)c1ccncc1 | > 100 µM | > 100 µM | > 100 µM | > 100 µM | > 100 µM | > 100 µM | > 100 µM | > 100 µM | > 100 µM | > 100 µM | > 100 µM | > 100 µM | > 100 µM | > 100 µM | – | – | – | – | – | –
